Experimental data as given in the supplement of paper PMC10307832.

Columns and labels:
Test in all cases: relative viability (nuclei count vs DMSO), 5 days (fraction); higher = more cells survive
CAP-232 + Luminespib = compound: C[C@H]([C@@H](C(=O)N)NC(=O)[C@@H]1CSSC[C@@H](C(=O)N[C@H](C(=O)N[C@@H](C(=O)N[C@H](C(=O)N1)CCCCN)CC2=CNC3=CC=CC=C32)CC4=CC=C(C=C4)O)NC(=O)[C@@H](CC5=CC=CC=C5)N)O [CAP-232] + CCNC(=O)c1noc(-c2cc(C(C)C)c(O)cc2O)c1-c1ccc(CN2CCOCC2)cc1 [Luminespib] (partner 0.01 µM)
Procedure, shortened: (§1)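 The day after seeding in 1536-well plates, lung cancer cell lines were treated by pin tool with a single drug, or with a fixed anchor-drug dose together with five library-drug doses (not always all listed) in √10 steps. After 5 days, a combined fix-and-stain solution (final 0.05% Triton X-100, 1% formaldehyde, 1 ug/ml Hoechst) was added. Nuclei counted on 4× images gave relative viability as treated counts over vehicle counts, reported as the median of duplicate plates.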

CAP-232 + Foretinib = compound: C[C@H]([C@@H](C(=O)N)NC(=O)[C@@H]1CSSC[C@@H](C(=O)N[C@H](C(=O)N[C@@H](C(=O)N[C@H](C(=O)N1)CCCCN)CC2=CNC3=CC=CC=C32)CC4=CC=C(C=C4)O)NC(=O)[C@@H](CC5=CC=CC=C5)N)O [CAP-232] + COc1cc2c(Oc3ccc(NC(=O)C4(C(=O)Nc5ccc(F)cc5)CC4)cc3F)ccnc2cc1OCCCN1CCOCC1 [Foretinib] (partner 0.25 µM)
Procedure, shortened: as §1

CAP-232 + OSI-027 = compound: C[C@H]([C@@H](C(=O)N)NC(=O)[C@@H]1CSSC[C@@H](C(=O)N[C@H](C(=O)N[C@@H](C(=O)N[C@H](C(=O)N1)CCCCN)CC2=CNC3=CC=CC=C32)CC4=CC=C(C=C4)O)NC(=O)[C@@H](CC5=CC=CC=C5)N)O [CAP-232] + COc1cccc2cc(-c3nc([C@H]4CC[C@H](C(=O)O)CC4)n4ncnc(N)c34)[nH]c12 [OSI-027] (partner 0.5 µM)
Procedure, shortened: as §1

CAP-232 + Alpelisib = compound: C[C@H]([C@@H](C(=O)N)NC(=O)[C@@H]1CSSC[C@@H](C(=O)N[C@H](C(=O)N[C@@H](C(=O)N[C@H](C(=O)N1)CCCCN)CC2=CNC3=CC=CC=C32)CC4=CC=C(C=C4)O)NC(=O)[C@@H](CC5=CC=CC=C5)N)O [CAP-232] + Cc1nc(NC(=O)N2CCC[C@H]2C(N)=O)sc1-c1ccnc(C(C)(C)C(F)(F)F)c1 [Alpelisib] (partner 2 µM)
Procedure, shortened: as §1

CAP-232 + Decitabine = compound: C[C@H]([C@@H](C(=O)N)NC(=O)[C@@H]1CSSC[C@@H](C(=O)N[C@H](C(=O)N[C@@H](C(=O)N[C@H](C(=O)N1)CCCCN)CC2=CNC3=CC=CC=C32)CC4=CC=C(C=C4)O)NC(=O)[C@@H](CC5=CC=CC=C5)N)O [CAP-232] + Nc1ncn([C@H]2C[C@H](O)[C@@H](CO)O2)c(=O)n1 [Decitabine] (partner 2 µM)
Procedure, shortened: as §1

EPLC-272H
relative viability (CAP-232 + Luminespib; first compound 0.4 µM): 0.256
relative viability (CAP-232 + Luminespib; first compound 1.265 µM): 0.198
relative viability (CAP-232 + Luminespib; first compound 4 µM): 0.219
relative viability (CAP-232 + Luminespib; first compound 12.65 µM): 0.157
relative viability (CAP-232 + Foretinib; first compound 0.4 µM): 0.661
relative viability (CAP-232 + Foretinib; first compound 1.265 µM): 0.644
relative viability (CAP-232 + Foretinib; first compound 4 µM): 0.659
relative viability (CAP-232 + Foretinib; first compound 12.65 µM): 0.71
relative viability (CAP-232 + OSI-027; first compound 0.4 µM): 0.275
relative viability (CAP-232 + OSI-027; first compound 1.265 µM): 0.284
relative viability (CAP-232 + OSI-027; first compound 4 µM): 0.285
relative viability (CAP-232 + OSI-027; first compound 12.65 µM): 0.262
relative viability (CAP-232 + Alpelisib; first compound 0.4 µM): 0.895
relative viability (CAP-232 + Alpelisib; first compound 1.265 µM): 0.959
relative viability (CAP-232 + Alpelisib; first compound 4 µM): 0.988
relative viability (CAP-232 + Alpelisib; first compound 12.65 µM): 0.941
relative viability (CAP-232 + Decitabine; first compound 0.4 µM): 0.348
relative viability (CAP-232 + Decitabine; first compound 1.265 µM): 0.334
relative viability (CAP-232 + Decitabine; first compound 4 µM): 0.344
relative viability (CAP-232 + Decitabine; first compound 12.65 µM): 0.355

COR-L 105
relative viability (CAP-232 + Luminespib; first compound 0.4 µM): 0.768
relative viability (CAP-232 + Luminespib; first compound 1.265 µM): 0.652
relative viability (CAP-232 + Luminespib; first compound 4 µM): 0.737
relative viability (CAP-232 + Luminespib; first compound 12.65 µM): 0.494
relative viability (CAP-232 + Foretinib; first compound 0.4 µM): 0.955
relative viability (CAP-232 + Foretinib; first compound 1.265 µM): 0.851
relative viability (CAP-232 + Foretinib; first compound 4 µM): 1.22
relative viability (CAP-232 + Foretinib; first compound 12.65 µM): 0.572
relative viability (CAP-232 + OSI-027; first compound 0.4 µM): 0.852
relative viability (CAP-232 + OSI-027; first compound 1.265 µM): 0.646
relative viability (CAP-232 + OSI-027; first compound 4 µM): 0.646
relative viability (CAP-232 + OSI-027; first compound 12.65 µM): 0.387
relative viability (CAP-232 + Alpelisib; first compound 0.4 µM): 1.09
relative viability (CAP-232 + Alpelisib; first compound 1.265 µM): 0.917
relative viability (CAP-232 + Alpelisib; first compound 4 µM): 1.16
relative viability (CAP-232 + Alpelisib; first compound 12.65 µM): 0.594
relative viability (CAP-232 + Decitabine; first compound 0.4 µM): 0.629
relative viability (CAP-232 + Decitabine; first compound 1.265 µM): 0.647
relative viability (CAP-232 + Decitabine; first compound 4 µM): 0.684
relative viability (CAP-232 + Decitabine; first compound 12.65 µM): 0.477

NCI-H2009
relative viability (CAP-232 + Luminespib; first compound 0.4 µM): 1.02
relative viability (CAP-232 + Luminespib; first compound 1.265 µM): 0.975
relative viability (CAP-232 + Luminespib; first compound 4 µM): 1
relative viability (CAP-232 + Luminespib; first compound 12.65 µM): 0.95
relative viability (CAP-232 + Foretinib; first compound 0.4 µM): 1.23
relative viability (CAP-232 + Foretinib; first compound 1.265 µM): 1.17
relative viability (CAP-232 + Foretinib; first compound 4 µM): 1.21
relative viability (CAP-232 + Foretinib; first compound 12.65 µM): 1.07
relative viability (CAP-232 + OSI-027; first compound 0.4 µM): 0.667
relative viability (CAP-232 + OSI-027; first compound 1.265 µM): 0.585
relative viability (CAP-232 + OSI-027; first compound 4 µM): 0.719
relative viability (CAP-232 + OSI-027; first compound 12.65 µM): 0.358
relative viability (CAP-232 + Alpelisib; first compound 0.4 µM): 1.17
relative viability (CAP-232 + Alpelisib; first compound 1.265 µM): 1.08
relative viability (CAP-232 + Alpelisib; first compound 4 µM): 1.13
relative viability (CAP-232 + Alpelisib; first compound 12.65 µM): 1.03
relative viability (CAP-232 + Decitabine; first compound 0.4 µM): 0.397
relative viability (CAP-232 + Decitabine; first compound 1.265 µM): 0.391
relative viability (CAP-232 + Decitabine; first compound 4 µM): 0.341
relative viability (CAP-232 + Decitabine; first compound 12.65 µM): 0.33

NCI-H23
relative viability (CAP-232 + Luminespib; first compound 0.4 µM): 0.218
relative viability (CAP-232 + Luminespib; first compound 1.265 µM): 0.196
relative viability (CAP-232 + Luminespib; first compound 4 µM): 0.197
relative viability (CAP-232 + Luminespib; first compound 12.65 µM): 0.119
relative viability (CAP-232 + Foretinib; first compound 0.4 µM): 0.926
relative viability (CAP-232 + Foretinib; first compound 1.265 µM): 0.883
relative viability (CAP-232 + Foretinib; first compound 4 µM): 0.718
relative viability (CAP-232 + Foretinib; first compound 12.65 µM): 0.802
relative viability (CAP-232 + OSI-027; first compound 0.4 µM): 0.64
relative viability (CAP-232 + OSI-027; first compound 1.265 µM): 0.529
relative viability (CAP-232 + OSI-027; first compound 4 µM): 0.687
relative viability (CAP-232 + OSI-027; first compound 12.65 µM): 0.487
relative viability (CAP-232 + Alpelisib; first compound 0.4 µM): 0.848
relative viability (CAP-232 + Alpelisib; first compound 1.265 µM): 0.743
relative viability (CAP-232 + Alpelisib; first compound 4 µM): 0.714
relative viability (CAP-232 + Alpelisib; first compound 12.65 µM): 0.668
relative viability (CAP-232 + Decitabine; first compound 0.4 µM): 0.293
relative viability (CAP-232 + Decitabine; first compound 1.265 µM): 0.295
relative viability (CAP-232 + Decitabine; first compound 4 µM): 0.296
relative viability (CAP-232 + Decitabine; first compound 12.65 µM): 0.295

NCI-H838
relative viability (CAP-232 + Luminespib; first compound 0.4 µM): 0.321
relative viability (CAP-232 + Luminespib; first compound 1.265 µM): 0.266
relative viability (CAP-232 + Luminespib; first compound 4 µM): 0.349
relative viability (CAP-232 + Luminespib; first compound 12.65 µM): 0.246
relative viability (CAP-232 + Foretinib; first compound 0.4 µM): 1.23
relative viability (CAP-232 + Foretinib; first compound 1.265 µM): 1.02
relative viability (CAP-232 + Foretinib; first compound 4 µM): 1.11
relative viability (CAP-232 + Foretinib; first compound 12.65 µM): 0.75
relative viability (CAP-232 + OSI-027; first compound 0.4 µM): 0.342
relative viability (CAP-232 + OSI-027; first compound 1.265 µM): 0.434
relative viability (CAP-232 + OSI-027; first compound 4 µM): 0.461
relative viability (CAP-232 + OSI-027; first compound 12.65 µM): 0.314
relative viability (CAP-232 + Alpelisib; first compound 0.4 µM): 1.08
relative viability (CAP-232 + Alpelisib; first compound 1.265 µM): 0.944
relative viability (CAP-232 + Alpelisib; first compound 4 µM): 1.12
relative viability (CAP-232 + Alpelisib; first compound 12.65 µM): 0.644
relative viability (CAP-232 + Decitabine; first compound 0.4 µM): 0.408
relative viability (CAP-232 + Decitabine; first compound 1.265 µM): 0.469
relative viability (CAP-232 + Decitabine; first compound 4 µM): 0.479
relative viability (CAP-232 + Decitabine; first compound 12.65 µM): 0.374

NCI-H1355
relative viability (CAP-232 + Luminespib; first compound 0.4 µM): 0.81
relative viability (CAP-232 + Luminespib; first compound 1.265 µM): 0.808
relative viability (CAP-232 + Luminespib; first compound 4 µM): 0.578
relative viability (CAP-232 + Luminespib; first compound 12.65 µM): 0.683
relative viability (CAP-232 + Foretinib; first compound 0.4 µM): 1.07
relative viability (CAP-232 + Foretinib; first compound 1.265 µM): 1.04
relative viability (CAP-232 + Foretinib; first compound 4 µM): 0.945
relative viability (CAP-232 + Foretinib; first compound 12.65 µM): 0.908
relative viability (CAP-232 + OSI-027; first compound 0.4 µM): 0.41
relative viability (CAP-232 + OSI-027; first compound 1.265 µM): 0.449
relative viability (CAP-232 + OSI-027; first compound 4 µM): 0.331
relative viability (CAP-232 + OSI-027; first compound 12.65 µM): 0.403
relative viability (CAP-232 + Alpelisib; first compound 0.4 µM): 0.845
relative viability (CAP-232 + Alpelisib; first compound 1.265 µM): 0.842
relative viability (CAP-232 + Alpelisib; first compound 4 µM): 0.963
relative viability (CAP-232 + Alpelisib; first compound 12.65 µM): 0.864
relative viability (CAP-232 + Decitabine; first compound 0.4 µM): 0.339
relative viability (CAP-232 + Decitabine; first compound 1.265 µM): 0.33
relative viability (CAP-232 + Decitabine; first compound 4 µM): 0.391
relative viability (CAP-232 + Decitabine; first compound 12.65 µM): 0.338

NCI-H1944
relative viability (CAP-232 + Luminespib; first compound 0.4 µM): 0.709
relative viability (CAP-232 + Luminespib; first compound 1.265 µM): 0.695
relative viability (CAP-232 + Luminespib; first compound 4 µM): 0.78
relative viability (CAP-232 + Luminespib; first compound 12.65 µM): 0.667
relative viability (CAP-232 + Foretinib; first compound 0.4 µM): 0.849
relative viability (CAP-232 + Foretinib; first compound 1.265 µM): 0.862
relative viability (CAP-232 + Foretinib; first compound 4 µM): 0.906
relative viability (CAP-232 + Foretinib; first compound 12.65 µM): 0.882
relative viability (CAP-232 + OSI-027; first compound 0.4 µM): 0.379
relative viability (CAP-232 + OSI-027; first compound 1.265 µM): 0.388
relative viability (CAP-232 + OSI-027; first compound 4 µM): 0.403
relative viability (CAP-232 + OSI-027; first compound 12.65 µM): 0.392
relative viability (CAP-232 + Alpelisib; first compound 0.4 µM): 0.956
relative viability (CAP-232 + Alpelisib; first compound 1.265 µM): 0.806
relative viability (CAP-232 + Alpelisib; first compound 4 µM): 0.794
relative viability (CAP-232 + Alpelisib; first compound 12.65 µM): 0.782
relative viability (CAP-232 + Decitabine; first compound 0.4 µM): 0.426
relative viability (CAP-232 + Decitabine; first compound 1.265 µM): 0.424
relative viability (CAP-232 + Decitabine; first compound 4 µM): 0.363
relative viability (CAP-232 + Decitabine; first compound 12.65 µM): 0.424
